Results as given in PubChem BioAssay AID248 (DTP/NCI, 2004).
Inconclusive results and toxic doses are left out. Rule as the data show it: active = T/C of 150% or more; inactive = T/C below 125%.

Test system: L1210 leukemia ip in BDF1 mice, survival T/C
Assay: NCI In Vivo Anticancer Drug Screen. Data for tumor model L1210 Leukemia (intraperitoneal) in B6D2F1 (BDF1) mice
Conditions: endpoint: mean survival time, higher = longer survival
Procedure, shortened: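 Antitumor effect is assessed in tumor-bearing animals. Survival in the compound arm is compared with a vehicle-dosed control arm and expressed as their quotient.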

[1] = dose: 100.0 mg/kg/injection, schedule: Q04DX002 (ip), vehicle: saline
[2] = dose: 200.0 mg/kg/injection, schedule: Q04DX002 (ip), vehicle: saline
[3] = dose: 400.0 mg/kg/injection, schedule: Q04DX002 (ip), vehicle: saline
[4] = dose: 50.0 mg/kg/injection, schedule: Q01DX001 (ip), vehicle: saline
[5] = dose: 100.0 mg/kg/injection, schedule: Q01DX001 (ip), vehicle: saline
[6] = dose: 200.0 mg/kg/injection, schedule: Q01DX001 (ip), vehicle: saline
[7] = dose: 400.0 mg/kg/injection, schedule: Q01DX001 (ip), vehicle: saline
[8] = dose: 100.0 mg/kg/injection, schedule: Q04DX002 (ip), vehicle: Klucel (hydroxypropylcellulose) (HPC)
[9] = dose: 400.0 mg/kg/injection, schedule: Q04DX002 (ip), vehicle: Klucel (hydroxypropylcellulose) (HPC)

Measured: T/C

C#CC1(OCC2CO2)CCCCC1 (configuration not stated)
inactive: dose: 50.0 mg/kg/injection, schedule: Q01DX009 (ip), vehicle: saline 97 % of control | dose: 50.0 mg/kg/injection, schedule: Q04DX003 (ip), vehicle: saline with Tween-80 100 % of control | dose: 100.0 mg/kg/injection, schedule: Q01DX009 (ip), vehicle: saline 117 % of control | dose: 100.0 mg/kg/injection, schedule: Q04DX003 (ip), vehicle: saline with Tween-80 101 % of control | dose: 200.0 mg/kg/injection, schedule: Q01DX009 (ip), vehicle: saline 101 % of control | dose: 200.0 mg/kg/injection, schedule: Q04DX003 (ip), vehicle: saline with Tween-80 103 % of control | dose: 400.0 mg/kg/injection, schedule: Q01DX009 (ip), vehicle: saline 94 % of control | dose: 400.0 mg/kg/injection, schedule: Q04DX003 (ip), vehicle: saline with Tween-80 100 % of control

O=C(CCCCl)N1CCCC1
inactive: [1] 98 % of control | [2] 91 % of control | [3] 94 % of control

CC(=O)OC(c1ccccc1)C(C)C (configuration not stated)
inactive: [1] 107 % of control | [2] 96 % of control | [3] 103 % of control

O=C(N/N=C/C=C\c1ccccc1)C(=O)N/N=C/C=C/c1ccccc1
inactive: dose: 100.0 mg/kg/injection, schedule: Q04DX003 (ip), vehicle: Klucel (hydroxypropylcellulose) (HPC) 94 % of control | dose: 200.0 mg/kg/injection, schedule: Q04DX003 (ip), vehicle: Klucel (hydroxypropylcellulose) (HPC) 89 % of control | dose: 400.0 mg/kg/injection, schedule: Q04DX003 (ip), vehicle: Klucel (hydroxypropylcellulose) (HPC) 94 % of control

CCCCCCC(=O)N1C(C)CCC1C (configuration not stated)
inactive: [1] 88 % of control | [2] 94 % of control | [3] 102 % of control

CC(=O)N(N=O)c1ccc([N+](=O)[O-])cc1Cl
inactive: [4] 102 % of control | [5] 102 % of control | [6] 100 % of control | [7] 102 % of control

NC(N)=NNC=NCCc1ccc(O)cc1
inactive: dose: 15.0 mg/kg/injection, schedule: Q01DX Z (ip), vehicle: carboxymethylcellulose (CMC) 107 % of control | dose: 30.0 mg/kg/injection, schedule: Q01DX Z (ip), vehicle: carboxymethylcellulose (CMC) 98 % of control | dose: 60.0 mg/kg/injection, schedule: Q01DX Z (ip), vehicle: carboxymethylcellulose (CMC) 101 % of control | dose: 120.0 mg/kg/injection, schedule: Q01DX Z (ip), vehicle: carboxymethylcellulose (CMC) 103 % of control

CCSC1C(OC(C)=O)C(C(COC(C)=O)OC(C)=O)OC1n1cnc2c(Cl)nc(Cl)nc21 (configuration not stated)
inactive: dose: 100.0 mg/kg/injection, schedule: Q01DX005 (ip), vehicle: saline 109 % of control | dose: 200.0 mg/kg/injection, schedule: Q01DX005 (ip), vehicle: saline 109 % of control

COc1ccc(/C=N\NC(=O)CCCC(=O)N/N=C/c2ccc(OC)c(O)c2)cc1O
inactive: [4] 100 % of control | [5] 100 % of control | [6] 100 % of control | [7] 103 % of control

CCOC(=O)C(CC(C)C)NC(=O)C(Cc1ccc(N(CCCl)CCCl)cc1)NC(C)=O (configuration not stated)
inactive: dose: 1.0 mg/kg/injection, schedule: Q01DX009 (ip), vehicle: other 108 % of control | dose: 2.0 mg/kg/injection, schedule: Q01DX009 (ip), vehicle: other 108 % of control | dose: 4.0 mg/kg/injection, schedule: Q01DX009 (ip), vehicle: other 120 % of control | dose: 8.0 mg/kg/injection, schedule: Q01DX009 (ip), vehicle: other 119 % of control | dose: 16.0 mg/kg/injection, schedule: Q01DX009 (ip), vehicle: other 109 % of control | dose: 32.0 mg/kg/injection, schedule: Q01DX009 (ip), vehicle: other 116 % of control | dose: 62.5 mg/kg/injection, schedule: Q01DX001 (oral), vehicle: alcohol 102 % of control | dose: 66.0 mg/kg/injection, schedule: Q01DX001 (ip), vehicle: olive oil, sesame oil, peanut oil 108 % of control | dose: 100.0 mg/kg/injection, schedule: Q01DX001 (ip), vehicle: olive oil, sesame oil, peanut oil 110 % of control | dose: 125.0 mg/kg/injection, schedule: Q01DX001 (oral), vehicle: alcohol 101 % of control | dose: 250.0 mg/kg/injection, schedule: Q01DX001 (oral), vehicle: alcohol 104 % of control | dose: 250.0 mg/kg/injection, schedule: Q01DX001 (oral), vehicle: olive oil, sesame oil, peanut oil 113 % of control | dose: 500.0 mg/kg/injection, schedule: Q01DX001 (oral), vehicle: alcohol 113 % of control

COc1ccccc1NC(=O)O/N=C/c1ccccn1
inactive: dose: 100.0 mg/kg/injection, schedule: Q04DX003 (ip), vehicle: other 99 % of control | dose: 200.0 mg/kg/injection, schedule: Q04DX003 (ip), vehicle: other 90 % of control | dose: 400.0 mg/kg/injection, schedule: Q04DX003 (ip), vehicle: other 103 % of control

CC1(C)C2CCC13CC(=O)OC3C2 (configuration not stated)
inactive: dose: 0.78 mg/kg/injection, schedule: Q01DX009 (ip), vehicle: saline 105 % of control | dose: 0.78 mg/kg/injection, schedule: Q04DX003 (ip), vehicle: acetone 101 % of control | dose: 1.56 mg/kg/injection, schedule: Q01DX009 (ip), vehicle: saline 100 % of control | dose: 1.56 mg/kg/injection, schedule: Q04DX003 (ip), vehicle: acetone 92 % of control | dose: 3.12 mg/kg/injection, schedule: Q01DX009 (ip), vehicle: saline 102 % of control | dose: 3.12 mg/kg/injection, schedule: Q04DX003 (ip), vehicle: acetone 98 % of control | dose: 4.6 mg/kg/injection, schedule: Q01DX009 (ip), vehicle: saline 89 % of control | dose: 7.0 mg/kg/injection, schedule: Q01DX009 (ip), vehicle: saline 91 % of control | dose: 10.5 mg/kg/injection, schedule: Q01DX009 (ip), vehicle: saline 104 % of control | dose: 15.0 mg/kg/injection, schedule: Q01DX009 (ip), vehicle: acetone 92 % of control

CCOC(=O)CN1N=C([P+](c2ccccc2)(c2ccccc2)c2ccccc2)CC1(c1ccccc1)c1ccccc1
inactive: dose: 10.0 mg/kg/injection, schedule: Q01DX001 (ip), vehicle: saline 95 % of control | dose: 20.0 mg/kg/injection, schedule: Q01DX001 (ip), vehicle: saline 96 % of control | dose: 40.0 mg/kg/injection, schedule: Q01DX001 (ip), vehicle: saline 86 % of control

C=CNC(=O)Oc1ccccc1
inactive: dose: 100.0 mg/kg/injection, schedule: Q01DX001 (ip), vehicle: other 96 % of control | dose: 200.0 mg/kg/injection, schedule: Q01DX001 (ip), vehicle: other 100 % of control | dose: 400.0 mg/kg/injection, schedule: Q01DX001 (ip), vehicle: other 91 % of control

CCOC(=O)c1cc2c(=O)c(C(=O)OCC)c[nH]c2o1
inactive: [8] 104 % of control | [9] 104 % of control

CCC(=Nc1ccccc1)Nc1ccccc1
inactive: [8] 106 % of control | dose: 200.0 mg/kg/injection, schedule: Q04DX002 (ip), vehicle: Klucel (hydroxypropylcellulose) (HPC) 106 % of control | [9] 109 % of control

Nc1cnc([S][Sn]([c]2ccccc2)([c]2ccccc2)[c]2ccccc2)s1
inactive: dose: 6.25 mg/kg/injection, schedule: Q04DX002 (ip), vehicle: saline with Tween-80 101 % of control | dose: 12.5 mg/kg/injection, schedule: Q04DX002 (ip), vehicle: saline with Tween-80 96 % of control | dose: 25.0 mg/kg/injection, schedule: Q04DX002 (ip), vehicle: saline with Tween-80 104 % of control

CN(C)C(=O)ON=C1c2ccccc2-c2ccccc21
inactive: [5] 103 % of control | [6] 97 % of control | [7] 103 % of control
